# Experimental data: US20060281100A1, “Thiotriphosphate nucleotide dye terminators” (priority 2005, published 2006)
# Experiment: Spectral measurements: absorbance and emission spectra, Beckman DU7400 spectrophotometer, water media
# Format: physicochemical
# Experimental: Unless otherwise stated, ultraviolet spectra (UV) were recorded for samples dissolved in MeOH or water contained in a one cm path length quartz cell using a Beckman DU-7400 spectrophotometer.
compound,measurement,setting,value
CCN1/C(=C/C=C/C=C/C2=[N+](CCCCCC(=O)O)c3ccc(S(=O)(=O)O)cc3C2(C)C)C(C)(C)c2cc(S(=O)(=O)[O-])ccc21 [Cy5],"Abs (H2O), Cyanine Dyes",absorbance maximum of the free cyanine dye in water,649 nm
same,Em (H2O),"emission maximum in water, column stands after the cyanine dye columns",675 nm
